Source: article PMC10860144, “Exploring the Dispersion and Electrostatic Components in Arene–Arene Interactions between Ligands and G4 DNA to Develop G4-Ligands” (Journal of Medicinal Chemistry, 2024)
pKd: −log10 of the molar value.

How the values were obtained:
[1] = test system: c-MYC Pu22 G4 DNA; assay: FRET melting assay, c-MYC Pu22 G4 DNA; format: binding, human; settings: c-MYC Pu22 G4 DNA 0.2 μM; for increased thermal stability (ΔTm): 40 equivalences of added compound
Text: The synthesized compounds (2–11) were first analyzed using a Förster resonance energy transfer (FRET) assay (Figure 2A). This assay measures the compounds’ ability to affect the thermal stability of fluorescently labeled DNA, in this case, the c-MYC Pu22 G4 DNA (Table S1). […] The addition of one methyl group to the quinazoline core (3) provides almost twice as strong thermal stability compared to 2. The addition of a second methyl group (4) further increased stabilization, albeit modestly (by 0.5 °C). This slight increase between 3 and 4 could stem from the suboptimal positioning of the added methyl substituent in relation to the guanines on the G4 surface, compared to other positions on the quinazoline ring. […] Furthermore, the methyl-substituted (4) and the methoxy-substituted (6) display a similar G4 stabilization despite the strong electrostatic character of the methoxy substituent compared to the neutral methyl group, which further supports that these interactions are dispersion-driven. This conclusion is further supported by the fact that the replacement of the methoxy group in 6 with chlorine in 7 results in a very similar stabilization as 3, 4, and 6.
Synthetic labeled oligonucleotides for the FRET study were purchased from Eurofins Genomics. Stock solutions were prepared in MQ-water at 100 μM concentration. The sequences used are listed in Supporting Information Table S1. All the oligonucleotides except Pu22 were prefolded in 10 mM lithium cacodylate buffer (pH 7.4), with 10 mM KCl and 90 mM LiCl by heating for 10 min at 95 °C and then cooling in fridge for at least 1 h. Pu22 was folded in 10 mM lithium cacodylate buffer (pH 7.4), with 2 mM KCl and 98 mM LiCl.
The FRET occurs between two dyes (5′-FAM as donor and 3′-TAMRA as acceptor) linked at both extremities of a DNA oligonucleotide. When the oligonucleotides are folded into G4 structures, the donor and acceptor are in proximity, which results in an energy transfer from the donor to the acceptor. This process can be detected by a reduction in the fluorescence emission of the donor. Fluorescence emission of the donor is recovered when the temperature increment triggers the thermal denaturation of the G4 structure. The experiments were performed in a Bio-Rad CFX96 real-time PCR device at temperatures from 10 to 95 °C at 1.5 °C/m heating rate using a 492 nm excitation wavelength and a 516 nm detection wavelength in 96-well plates. […] The stabilization (ΔTm) is calculated from comparison of Tm of the fluorescently labeled oligonucleotide in the presence or absence of the ligand. […]
The fluorescence resonance energy transfer (FRET) occurs between two dyes (5'-FAM as donor and 3'- TAMRA as acceptor) linked at both extremities of a DNA oligonucleotide. […]

[2] = Intrinsic clearance in human microsomes; format: in vitro ADME; settings: read-out: Human mics: intrinsic clearance in human microsomes
Description: All compounds (2–11, 25–29) were screened for their logD and solubility at pH 7.4 and for their intrinsic clearance in rat hepatocytes and human microsomes (Table S2). […] Replacing the basic amine side chain to a methyl substituent in the quinazolines (25–29) still retained good solubility (134 to over 1000 μM) but increased clearance in both rat hepatocytes and human microsomes. The logD was low for compounds with a basic amine side chain (2–11) and increased slightly when the amine was replaced with a methyl (25–29). As expected, additional substituents also affected the logD with the chloro-substituents increasing logD the most.
a Intrinsic clearance in rat hepatocytes ((μL/min)/10^6 cells).b Intrinsic clearance in human microsomes (μL/min/mg). […]

[3] = molecular target: c-MYC Pu22 G4 DNA; assay: Microscale thermophoresis (MST), c-MYC Pu22 G4 DNA; format: binding, human; settings: Cy5-labeled c-MYC Pu22 G4 DNA 25 nM; pH 7.4, 100 mM KCl; read-out: apparent Kd (MST)
Description: To evaluate the apparent binding affinities (Kd) for the compound series, we next used microscale thermophoresis (MST) with fluorescently labeled c-MYC Pu22 G4 DNA (Table S1). Overall, the measured MST binding results for compounds 2–11 corresponded well with the results from the FRET assay (Figures 2B and S3).
5′-Cy5 labeled G4 DNAs for this study were purchased from Eurofins Genomics. Stock solutions were prepared in water at 100 μM concentration. The sequences used are listed in Supporting Information Table S1. The G4 DNA sequences were folded in KCl buffer (10 mM phosphate, 100 mM KCl, pH 7.4) by heating at 95 °C for 5 min and then cooling to room temperature. All the experiments were performed in 10 mM phosphate pH 7.4, 100 mM KCl, and 0.05% Tween20. The labeled DNA concentration is held constant at 25 nM, and ligand concentration is varied depending on ligands Kd (16 1:3 dilutions). The samples were loaded into standard MST graded glass capillaries and initial fluorescence intensity of the capillary was measured using Monolith NT.115 (Nano Temper, Germany) with 20% LED power. The change in fluorescence with ligand’s concentrations were plotted in Excel and fitted through nonlinear equation to obtain the binding constants. […]
Microscale Thermophoresis (MST)
5'- Cy5 labelled G4 DNAs for this study were purchased from Eurofins Genomics. Stock solutions were prepared in water at […] concentration. The sequences used are listed in supplementary Table S1. The G4 DNA sequences were folded in KCl buffer (10 mM phosphate, 100 mM KCl, pH 7.4) by heating at 95 °C for 5 min and then cooling to room temperature. All the experiments were performed in 10 mM phosphate pH 7.4, 100 mM KCl, 0.05% Tween20. The labelled DNA concentration is held constant at 25 nM and ligand concentration is varied depending on ligands Kd (sixteen 1:3 dilutions). The samples were loaded into standard MST graded glass capillaries and initial fluorescence intensity of the capillary were measured using Monolith NT.115 (Nano Temper, Germany) with 20% LED power. The change in fluorescence with ligand's concentrations were plotted in Excel and fitted through non-linear equation to obtain the binding constants.
(1 picture or pasted object on this page, not shown here)

Row | microsomal CLint [2] | pKd [3] | SMILES | increased thermal stability (ΔTm) [1] | increase in thermal stability (ΔTm) ([1]; compound 8 μM)
1 | < 3 µL/min/mg | 5.85 | Cc1cc(NCCCN(C)C)nc(Nc2ncc3ccccc3n2)n1 [Compound 2, N4-(3-(Dimethylamino)propyl)-6-methyl-N2-(quinazolin-2-yl)pyrimidine-2,4-diamine] | 7.5 °C | 
2 | < 3 µL/min/mg | 7.30 | Cc1cc(C)c2nc(Nc3nc(C)cc(NCCCN(C)C)n3)nc(C)c2c1 [Compound 5, N4-(3-(Dimethylamino)propyl)-6-methyl-N2-(4,6,8-trimethylquinazolin-2-yl)pyrimidine-2,4-diamine] | 20 °C | 
3 | 140 µL/min/mg | 6.10 | Cc1cc(C)c2nc(Nc3nc(C)cc(C)n3)nc(C)c2c1 [Compound 27, N-(4,6-Dimethylpyrimidin-2-yl)-4,6,8-trimethylquinazolin-2-amine] |  | 12 °C
